In general, IC50 refers to the point on the concentration scale where inhibition reaches its midpoint.

One test deals with rat α9α10 nAChR (Rattus norvegicus, UniProt P43144+Q9JLB5). As to the kind of experiment: cell-based.
Another test addresses α3β4 nAChR (Rattus norvegicus, UniProt P04757+P12392). To be noted: cited from earlier work.

Where a SMILES comes first, the peptide text is derived from it. Bridges are numbered along the chain shown (N, C = ends). [ ]: non-standard residue; d: D form. Sec = N[C@@H](C[SeH])C(=O)O Where only a bound is given, the exact number is not on record here.

Chain of rat α9α10 nAChR (P43144 26-479 limits assumed): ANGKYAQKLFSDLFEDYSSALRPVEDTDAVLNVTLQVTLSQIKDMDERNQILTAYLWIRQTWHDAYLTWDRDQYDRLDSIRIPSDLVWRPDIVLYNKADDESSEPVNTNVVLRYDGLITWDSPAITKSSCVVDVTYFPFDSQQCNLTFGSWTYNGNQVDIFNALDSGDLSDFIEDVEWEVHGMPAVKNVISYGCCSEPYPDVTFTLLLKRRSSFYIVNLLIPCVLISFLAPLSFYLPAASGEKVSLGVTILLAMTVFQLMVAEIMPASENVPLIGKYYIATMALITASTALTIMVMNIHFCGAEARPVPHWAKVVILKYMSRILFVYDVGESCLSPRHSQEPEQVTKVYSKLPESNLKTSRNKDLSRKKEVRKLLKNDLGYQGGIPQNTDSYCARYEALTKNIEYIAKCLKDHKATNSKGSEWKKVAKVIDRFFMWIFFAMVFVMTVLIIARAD
Chain of rat α9α10 nAChR (Q9JLB5 25-447 limits assumed): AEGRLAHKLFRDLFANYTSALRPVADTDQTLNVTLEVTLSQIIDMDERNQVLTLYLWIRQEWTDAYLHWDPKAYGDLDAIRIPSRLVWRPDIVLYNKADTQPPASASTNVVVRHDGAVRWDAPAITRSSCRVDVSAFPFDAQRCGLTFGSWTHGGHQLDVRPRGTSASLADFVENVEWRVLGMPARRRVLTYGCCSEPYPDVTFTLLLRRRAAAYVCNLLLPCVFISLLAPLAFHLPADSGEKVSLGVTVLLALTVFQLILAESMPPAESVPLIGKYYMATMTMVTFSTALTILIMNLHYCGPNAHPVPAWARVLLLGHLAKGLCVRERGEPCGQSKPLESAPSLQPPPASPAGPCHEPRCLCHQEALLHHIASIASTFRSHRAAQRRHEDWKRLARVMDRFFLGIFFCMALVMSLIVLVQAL
Chain of α3β4 nAChR (P04757 26-499 limits assumed): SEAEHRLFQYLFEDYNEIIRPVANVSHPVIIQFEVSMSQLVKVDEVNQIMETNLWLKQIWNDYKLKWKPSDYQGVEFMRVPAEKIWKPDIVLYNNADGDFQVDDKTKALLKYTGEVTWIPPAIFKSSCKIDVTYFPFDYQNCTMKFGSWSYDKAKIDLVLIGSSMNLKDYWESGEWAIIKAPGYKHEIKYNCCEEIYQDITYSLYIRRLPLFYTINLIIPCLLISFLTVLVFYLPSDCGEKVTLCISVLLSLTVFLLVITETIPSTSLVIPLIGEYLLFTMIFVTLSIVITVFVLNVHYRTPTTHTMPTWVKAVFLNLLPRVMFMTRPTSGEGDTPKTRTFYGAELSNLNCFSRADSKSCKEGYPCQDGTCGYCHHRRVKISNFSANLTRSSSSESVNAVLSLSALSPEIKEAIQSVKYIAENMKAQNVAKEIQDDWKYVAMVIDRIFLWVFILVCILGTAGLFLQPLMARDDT
Chain of α3β4 nAChR (P12392 21-495 limits assumed): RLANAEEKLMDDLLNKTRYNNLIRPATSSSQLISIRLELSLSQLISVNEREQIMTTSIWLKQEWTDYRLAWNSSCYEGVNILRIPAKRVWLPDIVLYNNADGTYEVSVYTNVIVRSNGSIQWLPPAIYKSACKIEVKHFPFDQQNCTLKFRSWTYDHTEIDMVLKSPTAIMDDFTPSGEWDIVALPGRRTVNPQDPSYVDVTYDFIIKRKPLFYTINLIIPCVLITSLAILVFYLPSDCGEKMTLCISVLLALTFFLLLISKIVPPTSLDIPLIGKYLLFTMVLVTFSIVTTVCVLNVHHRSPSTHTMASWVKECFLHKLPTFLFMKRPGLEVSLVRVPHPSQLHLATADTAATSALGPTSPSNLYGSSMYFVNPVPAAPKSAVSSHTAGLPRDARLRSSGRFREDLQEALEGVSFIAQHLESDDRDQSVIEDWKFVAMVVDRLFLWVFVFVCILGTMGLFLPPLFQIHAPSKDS

As to `N=C(N)NCCC[C@H](NC(=O)[C@@H]1C[Se][Se]C[C@@H]2NC(=O)[C@@H](NC(=O)CN)CSSC[C@H](NC(=O)[C@H](CCCNC(=N)N)NC(=O)[C@@H]3CCCN3C(=O)[C@H](CC(=O)O)NC(=O)[C@H](CO)NC2=O)C(=O)N[C@@H](CCCNC(=N)N)C(=O)N[C@@H](Cc2ccc(O)cc2)C(=O)N[C@@H](CCCNC(=N)N)C(=O)N1)C(=O)O` [[C3 Sec;C12Sec] RgIA] (H-GC[Sec]SDPRCRYR[Sec]R-OH; disulfide 2-8; diselenide 3-12), on rat α9α10 nAChR, the “% block” value is reported as <10 nM (81.9 ± 1.8% block at 10 nM) and the IC50 was less than 0.01 µM. α-conotoxin AuIB: at α3β4 nAChR, the IC50 was 3.1 ± 1 µM.

These data come from patent US10947274B1 (priority 2018, dated 2021).
